From PubChem BioAssay (NCI)
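Dose response: 5 concentrations. Exposure: 48 h. Format: 96-well plates. Endpoint: linear interpolation; highest concentration if not reached. Definition used: TGI = concentration required for complete inhibition of growth.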

Columns and labels:
Assay in all cases: NCI anticancer screen, dose series, 48 h
ACHN renal = system: ACHN renal
CAKI-1 renal = system: CAKI-1 renal
SN12C renal = system: SN12C renal
SW-620 colon = system: SW-620 colon
BT-549 breast = system: BT-549 breast
U251 CNS = system: U251 CNS
UO-31 renal = system: UO-31 renal
UACC-257 melanoma = system: UACC-257 melanoma
UACC-62 melanoma = system: UACC-62 melanoma
EKVX NSCLC = system: EKVX NSCLC
HCT-15 colon = system: HCT-15 colon
TK-10 renal = system: TK-10 renal
K-562 leukemia = system: K-562 leukemia
SK-MEL-5 melanoma = system: SK-MEL-5 melanoma
RPMI-8226 leukemia = system: RPMI-8226 leukemia
SNB-19 CNS = system: SNB-19 CNS
NCI-H226 lung = system: NCI-H226 lung
COLO 205 colon = system: COLO 205 colon
PC-3 prostate = system: PC-3 prostate
A498 renal = system: A498 renal

| SMILES | TGI (ACHN renal) [µM] | TGI (CAKI-1 renal) [µM] | TGI (SN12C renal) [µM] | TGI (SW-620 colon) [µM] | TGI (BT-549 breast) [µM] | TGI (U251 CNS) [µM] | TGI (UO-31 renal) [µM] | TGI (UACC-257 melanoma) [µM] | TGI (UACC-62 melanoma) [µM] | TGI (EKVX NSCLC) [µM] | TGI (HCT-15 colon) [µM] | TGI (TK-10 renal) [µM] | TGI (K-562 leukemia) [µM] | TGI (SK-MEL-5 melanoma) [µM] | TGI (RPMI-8226 leukemia) [µM] | TGI (SNB-19 CNS) [µM] | TGI (NCI-H226 lung) [µM] | TGI (COLO 205 colon) [µM] | TGI (PC-3 prostate) [µM] | TGI (A498 renal) [µM] |
| --- | --- | --- | --- | --- | --- | --- | --- | --- | --- | --- | --- | --- | --- | --- | --- | --- | --- | --- | --- | --- |
| CCOC(=O)c1ccc(Nc2nc3cc(C(F)(F)F)ccc3nc2-c2ccccc2)cc1 | 47.5 | > 100 | > 100 | > 100 | > 100 | 49.5 | > 100 | > 100 | 29.4 | > 100 | > 100 | > 10 | > 100 | > 100 | > 100 | > 100 | > 100 | > 100 | 69.2 |  |
| COc1cc(OC)cc(Oc2nc3ccccc3nc2C(=O)O)c1 | > 100 | > 100 |  | > 100 |  | > 100 | > 100 | > 100 | > 100 | > 100 | > 100 | > 100 | > 100 | > 100 | > 100 | > 100 | > 100 | > 100 | > 100 | > 100 |
| CCOC(=O)c1c(N)nn2c1cc1cccccc12 | > 100 | > 100 | > 100 | > 100 | 65.2 | 69.6 |  | 71.5 | 50.8 | > 100 | > 100 | 74.6 |  | 69 | 45.7 | > 100 |  | 78.4 | 53.7 | 84.9 |
| Cc1ccc([N+](=O)[O-])c2c(NCCNC(=O)Cn3ccnc3[N+](=O)[O-])ccnc12 | > 100 | > 100 | > 100 | > 100 |  | > 100 | > 100 | 87.7 | > 100 | > 100 | > 100 | > 100 | > 100 | > 100 | > 100 | > 100 | 88 | > 100 | > 100 | > 100 |
| CCOP(C)(=O)C(Cc1c[nH]c2ccccc12)C(=O)O (stereo not given) | > 100 | > 100 | > 100 | > 100 | > 100 | > 100 | > 100 |  | > 100 | > 100 | > 100 |  | > 100 | > 100 | > 100 | > 100 |  | > 100 | > 100 | > 100 |
| C[C@H]1O[C@@H](c2c(O)ccc3ccccc23)C[C@@H](N(C)C)C1O (stereo not given in full) | > 100 |  | > 100 | > 100 | > 100 | > 100 | > 100 | > 100 | > 100 | > 100 | > 100 | > 100 | > 100 | > 100 |  | > 100 | > 100 | > 100 | > 100 | > 100 |
| OCC(CN1CCCCC1)(CN1CCCCC1)CN1CCCCC1 | > 100 | > 100 | > 100 | > 100 | > 100 | > 100 | > 100 | > 100 | > 100 | > 100 | > 100 | > 100 | > 100 | > 100 |  | > 100 | > 100 | > 100 | > 100 | > 100 |
| Cc1ccc(/C(O)=C/c2nc3ccccc3oc2=O)cc1 | > 100 | > 100 | > 100 |  | > 100 | > 100 | > 100 | > 100 | > 100 | > 100 | > 100 | > 100 | > 100 | 46.2 |  | > 100 | > 100 | > 100 | > 100 | > 100 |
| CCOC(=O)c1cc2c(ccc3cc(C(=O)OCC)[nH]c32)[nH]1 | > 100 | > 100 | 89.1 | > 100 | > 100 | 19.1 | > 100 | > 100 | > 100 | > 100 | > 100 | > 100 | > 100 | 98.4 | > 100 | 74.6 |  | > 100 | > 100 | > 100 |
| CCOC(=O)Cc1nnc2c(-c3ccccc3)nc3ccccc3n12 | 48.3 |  | > 100 | > 100 | > 100 | 48.4 | > 100 | > 100 | > 100 | 79.8 | > 100 | > 100 | > 100 | > 100 | > 100 | 62.1 | > 100 | > 100 | > 100 | > 100 |
| CC(=N/NC(=S)N1CCCCC1)/C(=N\NC(=S)N1CCCCC1)c1ccccc1 | 3.01 | 4.22 | 3.43 |  | 3.56 | 3.53 | 4.03 | 4.52 | 3.87 | 3.43 | 4.56 | 3.21 | > 100 | 3.57 | > 100 | 3.64 | 3.47 | 4.06 | 3.55 | 2.65 |
| CSC1=C(C(=O)Nc2ccc(Cl)cc2)C(N)=NC1=O |  | > 100 | > 100 | > 100 | > 100 | > 100 | > 100 | > 100 | > 100 | > 100 | > 100 | > 100 | > 100 | > 100 | > 100 | > 100 | > 100 | > 100 | > 100 | > 100 |
| OC(c1nc2ccccc2s1)(C(F)(F)F)C(F)(F)F | > 100 | > 100 | > 100 | > 100 |  | > 100 | > 100 | > 100 | > 100 | > 100 | > 100 | > 100 | > 100 | > 100 | > 100 | > 100 | > 100 | > 100 | > 100 | > 100 |
